Assay results published in US10376486B2, “Compositions and methods for reactivating latent viral infections” (priority 2014, dated 2019).

Assays:
Assay type in all cases: cell-based
J-Lat A1 cells = test: Cell viability of J-Lat A1 cells by Live/Dead dye staining; conditions: 2-40 nM PEP005
Protocol: FIG. 1: PEP005 induces reactivation of HIV latency in vitro. J-Lat A1 cells were exposed to different concentrations of PEP005 and virus reactivation was measured by GFP expression using flow cytometry. Cell viability was determined by Live/Dead dye staining. (A) Chemical Structure of PEP005. […] (D) PEP005 potently reactivates latent HIV in cell lines compared with other LRAs. J-Lat A1 cells were treated with 10 nM PEP005, 500 nM SAHA, 2 μM JQ1, 2 μM GSK343, 10 ng/ml TNF, 2 μM Prostratin, or 5 ng/ml PMA for 24 hours and the percentage of GFP expression was evaluated using flow cytometry. *, p<0.05; **, p<0.01.
J-Lat A1 cells (harboring a single copy of latent HIV LTR and one copy of green fluorescent protein gene under the HIV LTR control) or U1 cells (harboring two latent HIV genomes with defective Tat gene) were cultured in RPMI1640 medium with 10% fetal bovine serum (FBS) and 1% Pen/strep in a 37° C. incubator containing 5% CO2 [24,31]. Both of the cell lines were obtained from NIH AIDS Reagent Program. […] HIV reactivation was quantified by GFP expression using flow cytometry and the data were analyzed using FlowJo Software for J-Lat A1 cells, or by quantitative RT-PCR (RT-qPCR) for J-Lat A1 and U1 cells. Cell viability was evaluated using Live/Dead dye (Life Technologies) by flow cytometry. […]

[1] = test system: latent HIV in primary CD4+ T cells; test: Ex vivo HIV transcription in primary CD4+ T cells from HIV infected individuals on suppressive ART (RT-qPCR)
Protocol: Primary CD4+ T cells were isolated from peripheral blood of HIV infected individuals on suppressive ART and treated with 6 or 12 nM PEP005, 200 ng/ml PMA plus 2 μM lonomycin, or DMSO for 6 hours. Induction of HIV transcription was measured using RT-qPCR for the 5′ LTR region or Poly A region of the virus. **, p<0.01.
Primary CD4+ T cells were isolated from the peripheral blood of HIV positive individuals on suppressive ART and treated with 12 nM PEP005 alone or in combination with JQ1 for 6 hours, and HIV transcription was quantified using RT-qPCR for the 5′ LTR region or Poly A region of the virus.
Primary CD4+ T cells were isolated from the peripheral blood of HIV positive individuals on suppressive ART and treated with 12 nM PEP005 alone or in combination with JQ1 for 48 hours, and HIV transcription was quantified using RT-qPCR for the 5′ LTR region or Poly A region of the virus.
Primary CD4+ T cells were isolated from the peripheral blood of HIV positive individuals on suppressive ART and treated with 12 nM PEP005 alone or in combination with JQ1 for 6 or 48 hours, and HIV transcription was quantified using RT-qPCR for the 5′ LTR region or Poly A region of the virus.
Peripheral blood samples were collected from 13 HIV-infected individuals receiving suppressive ART for >3 years except for one patient. All subjects had suppression of plasma viremia for more than 6 months (Average 5.84 years). At the time of the study enrollment, CD4+ T cell counts in peripheral blood samples ranged from 264 to 1100 cells/mm^3 (Average 639 cell/mm^3) and plasma viral loads were <20 copies per ml as measured by qPCR (Table 1). Isolation of the peripheral blood mononuclear cells (PBMC) and purification of CD4+ T cells using the EasySep kit ([sequence] Technologies Inc. Vancouver, BC, Canada) were performed as previously described [24]. The purified CD4+ T cells were plated at a density of 1×10^6 cells/ml and treated with 200 ng/ml PMA plus 2 μM Ionomycin, 6-12 nM PEP005, 2 μM of JQ1, or 12 nM PEP005 plus 2 μM JQ1 for 6 hrs or 48 hrs and the cells were collected for RNA purification.

[2] = test system: J-Lat A1 cells, U1 cells, primary CD4+ T cells; test: Cell viability by MTT assay; conditions: J-Lat A1 and U1 cell lines, 12 nM PEP005, 24 hours
Protocol: FIG. 7: PEP005 causes minimal cytotoxicity and T cell proliferation. To evaluate the impact of PEP005 on the cell viability, U1 cells (A), J-Lat A1 cells (B) and CD4+ T cells (C) were treated with 12 nM of PEP005 for 24 hours, the cell viability was examined with the MTT assay and the S-phase cell cycle progression was evaluated after BrdU incorporation using BrdU ELISA. 25-50 μM Etoposide or 100-150 μM Doxorubicin (Doxo) served as positive controls for MTT and BrdU assays respectively. Statistical analysis was performed in comparison with controls. **, p<0.01.
Cells were placed in 96-well plates and incubated for 24 or 72 h hrs with compounds. Cell viability was measured using MTT assay (Roche Laboratories), and cell proliferation/S-phase progression was determined by using BrdU ELISA kit (Cell signaling, #1863).

[3] = test system: NF-κB/p65 binding to HIV LTR; test: ChIP-qPCR of NF-κB/p65 binding to the HIV LTR in J-Lat A1 cells; conditions: 12 nM PEP005
Protocol: FIG. 4: PEP005-induced HIV reactivation is mediated through PKCδ/θ-IκBα/ε-NF-κB signaling. (A) PEP005-induced HIV reactivation is suppressed by inhibition of the PKCδ/θ. J-Lat A1 cells were treated with 6 nM of PEP005 in the presence of 1, 2 or 5 μM of PKC inhibitor (PKCθ/δ inhibitor; Milipore/Calbiochem (539649)) and evaluated for GFP expression by RT-qPCR. (B) NF-κB inhibition partially suppresses PEP005-induced HIV reactivation in J-Lat A1 cells. J-Lat A1 cells were treated with 6 nM of PEP005 in the presence of 2.5 μM Bay 11-7082, an NF-κB inhibitor, and were evaluated for GFP expression by RT-qPCR. (C) J-Lat A1 cells were treated with PEP005 or alternatively with PKC inhibitor alone or in the presence of PEP005 and the relative binding of NF-κB to the HIV LTR was determined using ChIP-qPCR.
Chromatin immunoprecipitation (ChIP): ChIP assay was performed as previously described. Briefly, 1×10^6 J-Lat A1 cells were incubated with PEP005, or PKCδ/θ inhibitor (PKGδi, Millipore/Calbiochem), fixed in 1% formaldehyde then resuspended in lysis buffer containing 1% SDS, 10 mM EDTA, 50 mM Tris-HCl, pH 8.1 (ChIP Assay Kit, Millipore) and protease inhibitor cocktail (Sigma-Aldrich). […] DNA was extracted (Qiagen PCR purification kit) and quantitative real-time PCR was performed using Agilent Brilliant Ultra-Fast SYBR Green QPCR reagent using the 7500 real-time PCR System. […]

With `C/C=C(/C)C(=O)O[C@H]1C(C)=C[C@]23C(=O)[C@@H](C=C(CO)[C@@H](O)[C@]12O)[C@H]1[C@@H](C[C@H]3C)C1(C)C` [PEP005, (1aR,2S,5R,5aS,6S,8aS,9R,10aR)-5,5a-Dihydroxy-4-(hydroxymethyl)-1,1,7,9-tetramethyl-11-oxo-1a,2,5,5a,6,9,10,10a-octahydro-1H-2,8a-methanocyclopenta[a]cyclpropa[e][10]annulen-6-yl (2Z)-2-methylbut-2-enoate] the cellular toxicity (J-Lat A1 cells) was “absence of any apparent cellular toxicity”, the “individuals with increase in HIV transcription, 5′ LTR region” value ([1]; 6 nM PEP005, 6 hrs) was 2 out of 7 and the “donors with 2 or >2 fold increase in full-length HIV transcripts, poly A region” value ([1]; 12 nM PEP005) was 5 of the 6. For the same compound, the “HIV RNA copy number in 1 μg of total RNA from CD4+ T cells” value ([1]; 12 nM PEP005, 6 hr, vs control treatment) was “significantly induced latent HIV reactivation”, the “individuals with HIV transcription, 5′ LTR region” value ([1]; 12 nM PEP005, 6 hrs) was 5 out of 7 and the “donors with 2 fold or >2 fold increase in full-length HIV transcripts, poly A region” value ([1]; After 6 hours of PEP005 treatment) was 5 of the 7. For the same compound, the “cellular toxicity (MTT)” value [2] was “minimal levels of cellular toxicity” and the “increase in NF-κB/p65 binding to HIV LTR region” value [3] was 6 fold.
